Test results reported in EP0620225B1, “Cephalosporin derivatives” (Basilea Pharmaceutica AG, priority 1993, dated 1994).
≈ marks a conversion by molar mass, not a printed value.

Columns and labels:
[1] = system: M.catarrhalis; experiment: In vitro activity against selected species (MIC50, MIC90, range); type: cell-based; settings: Moraxella catarrhalis, medium IsoB
[2] = system: S.aureus MSSA; experiment: as above; type: cell-based; settings: Staphylococcus aureus, medium MHB (Mueller Hinton Broth)
[3] = system: Escherichia coli 25922; experiment: Efficacy against systemic infections (septicemia) in mice; type: in vivo; settings: 96 h, survival day 4
Description: (§1) Septicemia was induced in outbred Swiss albino mice (Jbm MoRo [specific pathogen free]; weight 16 to 20 g, Biomedical Research Laboratories, Füllinsdorf, Switzerland). Mice were infected by intraperitoneal injection of diluted overnight cultures of the test organisms. Bacterial challenge doses were 4-10 times the number of organisms required to kill 50% of untreated animals within 48 h. The test compounds were administered p.o. or s.c. 1 and 3 h after the bacterial challenge. To treat the infection with Pseudomonas aeruginosa BA an additional dose was given 5 h after challenge. Control and treatment groups at each dose were composed of five mice each. The 50% effective dose (ED50, in milligrams per kilogram) was calculated by probit analysis as described by Finney (Finney, D.J. 1978, Statistical method in biological assay, 3rd ed. Charles Griffin & Co., Ltd., London), from the survival rates on day 4 after infection.

[4] = system: S.aureus Smith; experiment: as above; type: in vivo; settings: Staphylococcus aureus, 96 h, sc 1 and 3 h after challenge, survival day 4
Description: as §1

[5] = system: S.aureus MRSA; experiment: In vitro activity against selected species (MIC50, MIC90, range); type: cell-based; settings: Staphylococcus aureus, medium MHA (Mueller Hinton Agar) +NaCl
Description: (§2) In vitro activity was determined by minimum inhibitory concentration in a microorganism spectum by the agar dilution method in Mueller Hinton agar.

[6] = system: E.faecalis; experiment: as above; type: cell-based; settings: Enterococcus faecalis, medium MHA
Description: as §2

[7] = system: S.pyogenes B15; experiment: Antibacterial spectrum (MIC), agar dilution; type: cell-based; settings: Streptococcus pyogenes, read-out: MIC
Description: as §2

[8] = system: S.agalactiae QK44; experiment: Antibacterial spectrum (MIC), agar dilution; type: cell-based; settings: Streptococcus agalactiae, read-out: MIC
Description: as §2

[9] = system: H.influenzae 1; experiment: Antibacterial spectrum (MIC), agar dilution; type: cell-based; settings: Haemophilus influenzae, read-out: MIC
Description: as §2

[10] = system: P.mirabilis 2117; experiment: Antibacterial spectrum (MIC), agar dilution; type: cell-based; settings: Proteus mirabilis, read-out: MIC
Description: as §2

[11] = system: E.faecalis 6; experiment: Antibacterial spectrum (MIC), agar dilution; type: cell-based; settings: Enterococcus faecalis, read-out: MIC
Description: as §2

[12] = system: C.freundii 902; experiment: Antibacterial spectrum (MIC), agar dilution; type: cell-based; settings: Citrobacter freundii, read-out: MIC
Description: as §2

[13] = system: N.meningitidis 69480; experiment: Antibacterial spectrum (MIC), agar dilution; type: cell-based; settings: Neisseria meningitidis, read-out: MIC
Description: as §2

[14] = system: P.aeruginosa 27853; experiment: Antibacterial spectrum (MIC), agar dilution; type: cell-based; settings: Pseudomonas aeruginosa, read-out: MIC
Description: as §2

[15] = system: K.pneumoniae 418; experiment: Antibacterial spectrum (MIC), agar dilution; type: cell-based; settings: Klebsiella pneumoniae, read-out: MIC
Description: as §2

[16] = system: S.pneumoniae Q19; experiment: Antibacterial spectrum (MIC), agar dilution; type: cell-based; settings: Streptococcus pneumoniae, read-out: MIC
Description: as §2

[17] = system: E.cloacae 908SSi; experiment: Antibacterial spectrum (MIC), agar dilution; type: cell-based; settings: Enterobacter cloacae, read-out: MIC
Description: as §2

[18] = system: C.freundii 43; experiment: Antibacterial spectrum (MIC), agar dilution; type: cell-based; settings: Citrobacter freundii, read-out: MIC
Description: as §2

[19] = system: M.catarrhalis RA21; experiment: Antibacterial spectrum (MIC), agar dilution; type: cell-based; settings: Moraxella catarrhalis, read-out: MIC
Description: as §2

[20] = system: L.monocytogenes BK23; experiment: Antibacterial spectrum (MIC), agar dilution; type: cell-based; settings: Listeria monocytogenes, read-out: MIC
Description: as §2

[21] = system: P.vulgaris 1028; experiment: Antibacterial spectrum (MIC), agar dilution; type: cell-based; settings: Proteus vulgaris, read-out: MIC
Description: as §2

[22] = system: S.viridans group 016; experiment: Antibacterial spectrum (MIC), agar dilution; type: cell-based; settings: Streptococcus viridans, read-out: MIC
Description: as §2

[23] = system: S.aureus 6538; experiment: Antibacterial spectrum (MIC), agar dilution; type: cell-based; settings: Staphylococcus aureus, read-out: MIC
Description: as §2

[24] = system: E.coli 25922; experiment: Antibacterial spectrum (MIC), agar dilution; type: cell-based; settings: Escherichia coli, read-out: MIC
Description: as §2

[25] = system: S.marcescens 69438; experiment: Antibacterial spectrum (MIC), agar dilution; type: cell-based; settings: Serratia marcescens, read-out: MIC
Description: as §2

[26] = system: S.aureus 734 MRSA; experiment: Antibacterial spectrum (MIC), agar dilution; type: cell-based; settings: Staphylococcus aureus, read-out: MIC
Description: as §2

[27] = system: E.cloacae 908R; experiment: Antibacterial spectrum (MIC), agar dilution; type: cell-based; settings: Enterobacter cloacae, read-out: MIC
Description: as §2

[28] = system: Acinetobacter sp.51-156; experiment: Antibacterial spectrum (MIC), agar dilution; type: cell-based; settings: SP.51156, read-out: MIC
Description: as §2

[29] = system: X.maltophilia 1AC739; experiment: Antibacterial spectrum (MIC), agar dilution; type: cell-based; settings: Stenotrophomonas maltophilia, read-out: MIC
Description: as §2

[30] = system: M.morganii 6H-137; experiment: Antibacterial spectrum (MIC), agar dilution; type: cell-based; settings: Morganella morganii, 6H137, read-out: MIC
Description: as §2

[31] = system: E.faecium; experiment: In vitro activity against selected species (MIC50, range); type: cell-based; settings: Enterococcus faecium, medium MHA
Description: as §2

[32] = system: S.pneumoniae PEN-R; experiment: In vitro activity against selected species (MIC50, MIC90, range); type: cell-based; settings: Streptococcus pneumoniae; for MIC: MIC range
[33] = system: S.viridans group; experiment: as above; type: cell-based; settings: Streptococcus viridans
[34] = system: E.faecalis; experiment: as above; type: cell-based; settings: Enterococcus faecalis, medium IsoB
[35] = medium IsoB (Isosensitest Broth)

MIC ([1]; MIC range): 1 to 32 µg/mL (≈ 2.02 to 64.7 µM)
MIC50 [1]: 4 µg/mL (≈ 8.09 µM)
MIC90 [1]: 16 µg/mL (≈ 32.4 µM)
MIC ([2]; MIC range): 1 to 2 µg/mL (≈ 2.02 to 4.04 µM)
MIC50 [2]: 1 µg/mL (≈ 2.02 µM)
MIC90 [2]: 1 µg/mL (≈ 2.02 µM)
MIC ([5]; MIC range): 8 to 16 µg/mL (≈ 16.2 to 32.4 µM)
MIC50 [5]: 16 µg/mL (≈ 32.4 µM)
MIC90 [5]: 16 µg/mL (≈ 32.4 µM)
MIC ([6]; MIC range): 0.5 to 2 µg/mL (≈ 1.01 to 4.04 µM)
MIC50 [6]: ≤ 0.5 µg/mL
MIC90 [6]: 2 µg/mL (≈ 4.04 µM)
MIC [7]: ≤ 0.06 µg/mL
MIC [8]: 0.25 µg/mL (≈ 0.506 µM)
MIC [9]: 0.12 µg/mL (≈ 0.243 µM)
MIC [10]: ≤ 0.06 µg/mL
MIC [11]: 1 µg/mL (≈ 2.02 µM)
MIC [12]: ≤ 0.06 µg/mL
MIC [13]: ≤ 0.06 µg/mL
MIC [14]: 32 µg/mL (≈ 64.7 µM)
MIC [15]: ≤ 0.06 µg/mL
MIC [16]: ≤ 0.06 µg/mL
MIC [17]: 0.25 µg/mL (≈ 0.506 µM)
MIC [18]: 4 µg/mL (≈ 8.09 µM)
MIC [19]: 16 µg/mL (≈ 32.4 µM)
MIC [20]: 2 µg/mL (≈ 4.04 µM)
MIC [21]: 2 µg/mL (≈ 4.04 µM)
MIC [22]: 0.5 µg/mL (≈ 1.01 µM)
MIC [23]: 0.5 µg/mL (≈ 1.01 µM)
MIC [24]: ≤ 0.06 µg/mL
MIC [25]: 1 µg/mL (≈ 2.02 µM)
MIC [26]: 16 µg/mL (≈ 32.4 µM)
MIC [27]: 32 µg/mL (≈ 64.7 µM)
MIC [28]: 8 µg/mL (≈ 16.2 µM)
MIC [29]: > 32 µg/mL
MIC [30]: ≤ 0.06 µg/mL
MIC ([31]; MIC range): 1 to 8 µg/mL (≈ 2.02 to 16.2 µM)
MIC50 [31]: 4 µg/mL (≈ 8.09 µM)
MIC [32, 35]: 0.1 to 0.5 µg/mL (≈ 0.202 to 1.01 µM)
MIC ([32]; medium IsoB + 20% serum): 0.12 to 0.5 µg/mL
MIC50 [32, 35]: 0.25 µg/mL (≈ 0.506 µM)
MIC90 [32, 35]: 0.5 µg/mL (≈ 1.01 µM)
MIC50 ([32]; medium IsoB + 20% serum): 0.5 µg/mL
MIC50 [33]: 2 µg/mL (≈ 4.04 µM)
MIC90 [33]: 2 µg/mL (≈ 4.04 µM)
MIC ([33]; MIC range): 0.12 to 8 µg/mL (≈ 0.243 to 16.2 µM)
MIC ([34]; MIC range): 0.25 to 2 µg/mL (≈ 0.506 to 4.04 µM)
MIC50 [34]: 0.5 µg/mL (≈ 1.01 µM)
MIC90 [34]: 2 µg/mL (≈ 4.04 µM)
Compound: CON1CC/C(=C\C2=C(C(=O)O)N3C(=O)[C@@H](NC(=O)/C(=N\O)c4csc(N)n4)[C@H]3SC2)C1=O [G]
ED50 ([3]; Escherichia coli 25922, po (orally) 1 and 3 h after challenge): ~3 mg/kg
ED50 ([3]; Escherichia coli, E.coli 25922, sc 1 and 3 h after challenge): < 0.1 mg/kg
ED50 [4]: < 1 mg/kg
